Results as given in US10066270B2, “Methods and kits used in classifying adrenocortical carcinoma” (THE TRANSLATIONAL GENOMICS RESEARCH INSTITUTE, priority 2010, dated 2018).

Key:
PTTG1 [1] = assay: PTTG1 expression in SW-13 ACC cell line, relative to beta-actin; format: cell-based
Source text: FIG. 6 depicts the effect of vorinostat on the ACC cell line SW-13.

PTTG1 [2] = assay: PTTG1 expression in H259R ACC cell line, relative to beta-actin; format: cell-based
Source text: FIG. 7 depicts the effect of vorinostat on the ACC cell line H259R.

adrenocortical carcinoma = conditions: ACC patients; cited from earlier work

Row | SMILES | effect on PTTG1 expression (PTTG1 [1]) | effect on PTTG1 expression (PTTG1 [2]) | patients showing a response (adrenocortical carcinoma) | side effects (adrenocortical carcinoma)
1 | O=C(CCCCCCC(=O)Nc1ccccc1)NO [Vorinostat] | reduces PTTG1 expression | reduces PTTG1 expression |  | 
2 | Clc1ccc(C(c2ccccc2Cl)C(Cl)Cl)cc1 (stereo not shown) [mitotane] |  |  | approximately 22% | severe, dose limiting side effects
